Experiments:
Format in all cases: functional, cell-based
Glutamate receptor 2 [1] = target: T1, Glutamate receptor 2 (Homo sapiens, UniProt P42262); experiment: Activity at human recombinant iGluR2 flip expressed in HEK293 cells measured as change in intracellular calcium ion concentration in presence of glutamate by FLIPR assay
Glutamate receptor 4 [2] = target: T2, Glutamate receptor 4 (Homo sapiens, UniProt P48058); experiment: Activity at human recombinant iGluR4 flip expressed in HEK293 cells measured as change in intracellular calcium ion concentration in presence of glutamate by FLIPR assay
T2 sequence (P48058 whole entry): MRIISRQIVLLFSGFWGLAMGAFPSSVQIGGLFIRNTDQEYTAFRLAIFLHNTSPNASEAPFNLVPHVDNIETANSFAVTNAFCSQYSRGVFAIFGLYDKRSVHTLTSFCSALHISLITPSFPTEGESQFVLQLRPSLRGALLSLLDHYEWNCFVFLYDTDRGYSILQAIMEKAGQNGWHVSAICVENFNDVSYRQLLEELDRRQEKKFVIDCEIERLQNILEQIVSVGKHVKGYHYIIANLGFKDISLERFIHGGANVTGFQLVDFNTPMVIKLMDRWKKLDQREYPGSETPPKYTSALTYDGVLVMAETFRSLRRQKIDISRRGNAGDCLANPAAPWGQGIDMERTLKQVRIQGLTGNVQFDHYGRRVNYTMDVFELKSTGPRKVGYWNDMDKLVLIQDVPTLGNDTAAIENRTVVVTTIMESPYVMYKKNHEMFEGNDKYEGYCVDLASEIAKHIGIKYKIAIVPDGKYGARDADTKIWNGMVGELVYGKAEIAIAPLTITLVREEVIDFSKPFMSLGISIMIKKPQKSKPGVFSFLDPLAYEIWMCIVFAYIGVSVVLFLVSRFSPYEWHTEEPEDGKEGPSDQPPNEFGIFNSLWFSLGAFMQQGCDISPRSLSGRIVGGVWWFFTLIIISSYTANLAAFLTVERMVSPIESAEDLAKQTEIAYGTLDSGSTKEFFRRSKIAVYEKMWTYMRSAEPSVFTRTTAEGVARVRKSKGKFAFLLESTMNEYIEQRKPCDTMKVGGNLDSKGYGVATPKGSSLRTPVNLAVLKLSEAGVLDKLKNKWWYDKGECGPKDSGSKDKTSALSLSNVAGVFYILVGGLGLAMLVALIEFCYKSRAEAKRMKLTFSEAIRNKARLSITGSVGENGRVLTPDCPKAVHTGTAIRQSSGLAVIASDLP

Glutamate receptor 2 [3] = target: T1, Glutamate receptor 2; experiment: Activity at human recombinant iGluR2 flop expressed in HEK293 cells measured as change in intracellular calcium ion concentration in presence of glutamate by FLIPR assay
Glutamate receptor 4 [4] = target: T2, Glutamate receptor 4; experiment: Activity at human recombinant iGluR4 flop expressed in HEK293 cells measured as change in intracellular calcium ion concentration in presence of glutamate by FLIPR assay

T1 sequence (P42262 whole entry): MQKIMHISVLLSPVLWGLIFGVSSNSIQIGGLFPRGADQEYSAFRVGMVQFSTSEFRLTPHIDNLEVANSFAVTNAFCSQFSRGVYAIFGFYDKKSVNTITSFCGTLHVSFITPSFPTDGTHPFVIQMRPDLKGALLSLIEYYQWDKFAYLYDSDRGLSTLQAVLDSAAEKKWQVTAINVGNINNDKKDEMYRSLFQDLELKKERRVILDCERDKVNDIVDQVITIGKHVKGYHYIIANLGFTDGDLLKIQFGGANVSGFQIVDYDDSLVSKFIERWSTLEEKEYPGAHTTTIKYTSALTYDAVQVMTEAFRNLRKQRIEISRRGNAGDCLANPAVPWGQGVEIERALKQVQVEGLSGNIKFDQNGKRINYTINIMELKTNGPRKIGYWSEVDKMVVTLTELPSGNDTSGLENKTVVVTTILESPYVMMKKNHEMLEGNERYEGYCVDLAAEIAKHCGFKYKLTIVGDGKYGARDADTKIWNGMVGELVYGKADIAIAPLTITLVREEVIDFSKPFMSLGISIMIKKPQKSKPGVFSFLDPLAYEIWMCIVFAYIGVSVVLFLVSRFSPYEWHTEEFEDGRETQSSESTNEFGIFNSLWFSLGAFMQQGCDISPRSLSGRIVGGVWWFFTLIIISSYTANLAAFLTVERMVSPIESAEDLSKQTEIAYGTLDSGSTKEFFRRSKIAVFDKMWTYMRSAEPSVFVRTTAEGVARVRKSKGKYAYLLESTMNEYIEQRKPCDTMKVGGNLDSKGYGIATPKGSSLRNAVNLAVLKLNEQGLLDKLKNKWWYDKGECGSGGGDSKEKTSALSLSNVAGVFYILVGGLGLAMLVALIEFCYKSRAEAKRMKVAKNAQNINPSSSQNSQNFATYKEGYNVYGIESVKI

| Compound | EC50 (Glutamate receptor 2 [1]) | EC50 (Glutamate receptor 4 [2]) | EC50 (Glutamate receptor 2 [3]) | EC50 (Glutamate receptor 4 [4]) |
| --- | --- | --- | --- | --- |
| CCc1c(C#N)c(-c2ccc(-c3cccc(Cl)c3)cc2)c(C(=O)O)n1C | 186 nM | 1080 nM | 900 nM | > 3000 nM |
| CCOc1ccccc1-c1ccc(-c2c(C#N)c(CC)n(C)c2C(=O)O)cc1 | 83 nM | 158 nM | 36 nM | 146 nM |
| Cn1cc(C#N)c(-c2ccc(-c3ccccc3)cc2)c1C(=O)O | > 3000 nM | > 3000 nM | > 3000 nM | > 3000 nM |
| CCSc1c(C#N)c(-c2ccc(-c3ccccc3)cc2)c(C(=O)O)n1C | – | 619 nM | – | – |
| CSc1c(C#N)c(-c2ccc(-c3ccccc3)cc2)c(C(=O)O)n1C | 174 nM | 394 nM | 473 nM | 1300 nM |
| Cc1c(C#N)c(-c2ccc(-c3ccccc3)cc2)c(C(=O)O)n1C | 308 nM | 532 nM | 391 nM | 2390 nM |
| CSc1sc(C(=O)O)c(-c2ccc(C(C)(C)C)cc2)c1C#N | 97 nM | 214 nM | 309 nM | 1560 nM |
| CCc1c(C#N)c(-c2ccc(-c3ccccc3Cl)cc2)c(C(=O)O)n1C | 42 nM | 225 nM | 55 nM | 157 nM |
| CCc1c(C#N)c(-c2ccc(-c3ccccc3C#N)cc2)c(C(=O)O)n1C | 82 nM | 56 nM | 73 nM | 53 nM |
| CCc1c(C#N)c(-c2ccc(-c3cccc(OC)c3)cc2)c(C(=O)O)n1C | 391 nM | 1050 nM | 924 nM | > 3000 nM |
| Cn1c(Br)c(C#N)c(-c2ccc(-c3ccccc3)cc2)c1C(=O)O | > 3000 nM | 679 nM | > 3000 nM | 1690 nM |
| CCc1c(C#N)c(-c2ccc(-c3cccc(C#N)c3)cc2)c(C(=O)O)n1C | 395 nM | 631 nM | 974 nM | > 3000 nM |
| CCc1c(C#N)c(-c2ccc(-c3ccccc3OC)cc2)c(C(=O)O)n1C | 280 nM | 673 nM | 902 nM | 386 nM |
| CC(C)Sc1c(C#N)c(-c2ccc(-c3ccccc3)cc2)c(C(=O)O)n1C | > 3000 nM | > 3000 nM | > 3000 nM | > 3000 nM |
| CCc1c(C#N)c(-c2ccc(-c3ccccc3C)cc2)c(C(=O)O)n1C | 270 nM | 790 nM | 990 nM | 1180 nM |
| CCc1c(C#N)c(-c2ccc(-c3ccccc3SC)cc2)c(C(=O)O)n1C | 57 nM | 105 nM | 32 nM | 77 nM |

Other lines, results leading:

| EC50 (Glutamate receptor 2 [1]) | EC50 (Glutamate receptor 4 [2]) | EC50 (Glutamate receptor 2 [3]) | EC50 (Glutamate receptor 4 [4]) | Compound |
| --- | --- | --- | --- | --- |
| 345 nM | 242 nM | 1040 nM | 2950 nM | CCc1c(C#N)c(-c2ccc(-c3ccc(F)cc3)cc2)c(C(=O)O)n1C |
| 423 nM | 373 nM | 370 nM | > 3000 nM | CCc1c(C#N)c(-c2ccc(-c3ccc(C#N)cc3)cc2)c(C(=O)O)n1C |
| 423 nM | 738 nM | 370 nM | > 3000 nM | CCc1c(C#N)c(-c2ccc(-c3ccc(OC)cc3)cc2)c(C(=O)O)n1C |
| 111 nM | 80 nM | 143 nM | 185 nM | CCc1c(C#N)c(-c2ccc(-c3ccccc3F)cc2)c(C(=O)O)n1C |
| 142 nM | 910 nM | 984 nM | > 3000 nM | CCc1c(C#N)c(-c2ccc(-c3ccc(Cl)cc3)cc2)c(C(=O)O)n1C |
| 103 nM | 213 nM | 398 nM | 1770 nM | CCc1c(C#N)c(-c2ccc(-c3ccccc3)cc2)c(C(=O)O)n1C |
| 965 nM | 2080 nM | 2130 nM | > 3000 nM | CCc1c(C#N)c(-c2ccc(-c3cccc(C)c3)cc2)c(C(=O)O)n1C |
| 412 nM | 1140 nM | 1650 nM | > 3000 nM | CCc1c(C#N)c(-c2ccc(-c3ccc(C)cc3)cc2)c(C(=O)O)n1C |
| 426 nM | 223 nM | 1490 nM | > 3000 nM | CCc1c(C#N)c(-c2ccc(-c3cccc(F)c3)cc2)c(C(=O)O)n1C |

From ChEMBL document CHEMBL1146909, “A novel class of positive allosteric modulators of AMPA receptors: design, synthesis, and structure-activity relationships of 3-biphenyl-4-yl-4-cyano-5-ethyl-1-methyl-1H-pyrrole-2-carboxylic acid, LY2059346” (Bioorg Med Chem Lett, 2006)
